Experimental findings from patent publication US11649227B2, “Allosteric chromenone inhibitors of phosphoinositide 3-kinase (PI3K) for the treatment of disease” (Petra Pharma Corporation, priority 2020, dated 2023) are described below.

Test [1] deals with human full length PIK3CA H1047R mutant (p110α/p85α complex) (Homo sapiens (Human), UniProt P42336, H1047R). Description: PI3K-Alpha kinase (PIK3CA) activity, H1047R mutant, Transcreener ADP2 FI assay. The settings on record: PI3K-α (PIK3CA) H1047R mutant, biochemical. Here is the method: (§1) PI3K-Alpha kinase (PIK3CA) activity, wild-type and H1047R mutant and determining IC50 values for inhibitors
(§2) Recombinant, catalytically active human full length PIK3KA Wild-type and H1047R mutant were purchased as 1:1 complex of N-terminal 6×his tagged p110<(catalytic) and untagged p85<(regulatory subunit) from EMD Millipore Sigma (cat. no. 14-602M and 14-792M, respectively). The enzyme stocks were diluted to 5× stocks in buffer (20 mM HEPES pH 7.4, 100 mM NaCl, 0.5 mM EGTA, 0.01% triton-x-100) just before use. PIP2diC8 (Avanti Polar Lipids Inc., cat. no. 850185) or phosphoinositol-4,5-bisphosphate with phosphoserine (PIP2:PS) membrane (Thermo Fisher Scientific, cat. no. PV5100) was used as lipid substrates. PIP2diC8 lyophilized powder and PIP2:PS (1:19) membrane stock (1 mM in PIP2) were separately dissolved in milliQ water to a concentration of 250 uM and stored in −20° C. 10 mM stocks of compounds were serially diluted (3×) in neat DMSO and stored in a dessicator at room temperature. 5× compound stocks in 25% DMSO were prepared fresh from neat DMSO stocks. Wild-type (WT) and H1047R mutant protein, along with buffer components (except ATP), were incubated with or without compound at 27° C. for 1h. After incubation, the reaction was initiated by the addition of 5 uL of 125 uM ATP. A typical assay mixture (25 uL) comprised 40 mM HEPES buffer, pH 7.4, 25 mM MgCl2, 0.01% v/v triton-X-100, 5% v/v DMSO, 20 mM NaCl, 1-5 nM wt or H1047R, 25 uM ATP, and 50 uM PTP2diC8 or PTP2 in membrane. The reaction was allowed to proceed until about […] (2.5 uM ADP) after which time, 10 uL of reaction mixture was quenched with 25 uL of transcreener reagent (Transcreener ADP2 FI assay kit, BellBrook labs, Cat. No. 3013). The contents were incubated at rt for 1h and fluorescence was measured using a plate reader (Paradigm, Molecular Devices). The same assay was also run at pH 6.0 or 6.4 using MOPS buffer (Fisher BioReagents, CAS 1132-61-2). A calibration curve was generated under identical buffer conditions with varying ADP amounts. Using that, the observed fluorescence was converted to uM ADP. A plot between [ADP] and log[I] yielded the dose-response curves that enabled the calculation of IC50s.

Test [2] concerns the target human full length PIK3CA Wild-type (p110α/p85α complex) (Homo sapiens (Human), UniProt P42336). Description: PI3K-Alpha kinase (PIK3CA) activity, wild-type, Transcreener ADP2 FI assay. The conditions noted are these: PI3K-α (PIK3CA) wild-type, biochemical. On the procedure:
as §1, §2

For a further test, the system named is T-47D. Description: Cellular Assay T-47D. In kind it is cell-based. The settings on record: Homo sapiens, T47D; T-47D cells.

Sequence of human full length PIK3CA H1047R mutant (p110α/p85α complex) (P42336 whole entry H1047R): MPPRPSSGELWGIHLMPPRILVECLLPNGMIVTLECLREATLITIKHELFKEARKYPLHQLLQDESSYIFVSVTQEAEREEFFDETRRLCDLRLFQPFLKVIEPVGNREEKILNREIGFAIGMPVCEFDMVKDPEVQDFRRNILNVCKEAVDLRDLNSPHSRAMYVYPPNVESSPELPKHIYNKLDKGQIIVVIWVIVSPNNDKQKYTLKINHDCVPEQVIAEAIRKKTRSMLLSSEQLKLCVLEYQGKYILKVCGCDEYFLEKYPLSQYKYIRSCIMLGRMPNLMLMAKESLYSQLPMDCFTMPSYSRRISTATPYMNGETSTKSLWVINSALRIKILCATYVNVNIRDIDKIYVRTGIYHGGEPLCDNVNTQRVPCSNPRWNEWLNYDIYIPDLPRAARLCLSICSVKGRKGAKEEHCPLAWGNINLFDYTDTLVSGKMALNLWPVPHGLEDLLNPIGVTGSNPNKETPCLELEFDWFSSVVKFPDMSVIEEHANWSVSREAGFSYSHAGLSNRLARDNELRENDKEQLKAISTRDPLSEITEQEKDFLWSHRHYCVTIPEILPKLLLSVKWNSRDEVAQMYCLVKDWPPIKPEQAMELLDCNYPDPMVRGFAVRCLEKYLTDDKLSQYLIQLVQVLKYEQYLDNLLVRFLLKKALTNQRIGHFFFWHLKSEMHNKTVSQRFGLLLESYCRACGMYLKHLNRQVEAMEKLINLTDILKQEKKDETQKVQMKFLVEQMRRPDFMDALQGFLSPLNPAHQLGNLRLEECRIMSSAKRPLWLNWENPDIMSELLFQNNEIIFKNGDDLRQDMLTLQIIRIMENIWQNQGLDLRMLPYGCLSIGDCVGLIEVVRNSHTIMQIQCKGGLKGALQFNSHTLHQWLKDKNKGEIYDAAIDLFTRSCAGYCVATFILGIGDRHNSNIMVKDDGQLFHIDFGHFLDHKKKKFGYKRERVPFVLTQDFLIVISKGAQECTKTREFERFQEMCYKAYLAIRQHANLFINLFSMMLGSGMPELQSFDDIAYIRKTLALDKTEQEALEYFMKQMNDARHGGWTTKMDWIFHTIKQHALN
Sequence of human full length PIK3CA H1047R mutant (p110α/p85α complex) (P27986 whole entry partner): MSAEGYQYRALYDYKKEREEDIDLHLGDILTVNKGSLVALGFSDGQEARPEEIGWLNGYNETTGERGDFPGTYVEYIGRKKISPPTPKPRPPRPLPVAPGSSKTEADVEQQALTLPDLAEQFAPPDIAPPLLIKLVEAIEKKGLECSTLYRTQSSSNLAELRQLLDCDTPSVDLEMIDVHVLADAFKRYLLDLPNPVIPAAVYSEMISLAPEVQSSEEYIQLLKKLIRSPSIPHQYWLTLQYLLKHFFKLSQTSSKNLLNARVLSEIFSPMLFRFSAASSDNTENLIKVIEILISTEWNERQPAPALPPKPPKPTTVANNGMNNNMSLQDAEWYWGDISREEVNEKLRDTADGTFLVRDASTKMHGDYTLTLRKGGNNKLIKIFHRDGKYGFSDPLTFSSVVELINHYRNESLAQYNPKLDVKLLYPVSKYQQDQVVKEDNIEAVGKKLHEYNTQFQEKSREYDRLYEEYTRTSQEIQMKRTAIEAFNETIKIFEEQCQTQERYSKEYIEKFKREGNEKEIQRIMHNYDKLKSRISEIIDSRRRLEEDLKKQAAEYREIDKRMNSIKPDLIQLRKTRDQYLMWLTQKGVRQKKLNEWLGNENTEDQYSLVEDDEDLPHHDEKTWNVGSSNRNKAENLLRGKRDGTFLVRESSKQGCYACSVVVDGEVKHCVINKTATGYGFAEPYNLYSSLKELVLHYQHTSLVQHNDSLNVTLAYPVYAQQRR
Sequence of human full length PIK3CA Wild-type (p110α/p85α complex) (P42336 whole entry): as the sequence (P42336 whole entry H1047R) above, with R1047H counted along it
Sequence of human full length PIK3CA Wild-type (p110α/p85α complex) (P27986 whole entry partner): as the sequence (P27986 whole entry partner) above

On to `Cc1cc(C(C)Nc2ccc(F)cc2C(=O)O)c2oc(N3Cc4ccc(F)cc4C3)cc(=O)c2c1` (single isomer, unassigned) [Example 349, 5-Fluoro-2-[1-[2-(5-fluoroisoindolin-2-yl)-6-methyl-4-oxo-chromen-8-yl]ethylamino]benzoic acid], for which the IC50 in test [1] and in test [2] was under 500 nM throughout.

The compound `Cc1cc(C(C)Nc2ccccc2C(=O)O)c2oc(N3CCC(C)(C)CC3)c(C)c(=O)c2c1` (single isomer, unassigned) [Example 358, 2-[1-[2-(4,4-Dimethyl-1-piperidyl)-3,6-dimethyl-4-oxo-chromen-8-yl]ethylamino]benzoic acid] displayed an EC50 in the test with T-47D of under 1000 nM.

`Cc1cc(C(C)Nc2ccccc2C(=O)O)c2oc(N3Cc4ccccc4C3)cc(=O)c2c1` (single isomer, unassigned) [Example 362, 2-[1-(2-Isoindolin-2-yl-6-methyl-4-oxo-chromen-8-yl)ethylamino]benzoic acid]: the IC50 is under 500 nM in test [1] and 500 to 1000 nM in test [2].

`Cc1cc(C(C)Nc2ccccc2C(=O)O)c2oc(N3Cc4ccccc4C3)c(C)c(=O)c2c1` (single isomer, unassigned; isomer 1) [Example 265, 2-[1-(2-Isoindolin-2-yl-3,6-dimethyl-4-oxo-chromen-8-yl)ethylamino]benzoic acid, Isomer 1]: the IC50 in test [1] was under 500 nM; in test [2], 1000 to 5000 nM.

Turning to `CC(Nc1ccccc1C(=O)O)c1cc(C(F)(F)F)cc2c(=O)cc(N3Cc4ccc(C#N)cc4C3)oc12` (single isomer, unassigned; isomer 2) [Example 338, 2-[1-[2-(5-Cyanoisoindolin-2-yl)-4-oxo-6-(trifluoromethyl)chromen-8-yl]ethylamino]benzoic acid, Isomer 2], the IC50 in test [1] and in test [2] was under 500 nM throughout.

`Cc1cc(C(C)Nc2ccccc2C(=O)O)c2oc(N3C4CCCC3C4)cc(=O)c2c1` (single isomer, unassigned; isomer 2) [Example 425, 2-[1-[2-(6-Azabicyclo[3.1.1]heptan-6-yl)-6-methyl-4-oxo-chromen-8-yl]ethylamino]benzoic acid, Isomer 2]: the IC50 is under 500 nM in test [1] and 1000 to 5000 nM in test [2].

With `Cc1cc(C(C)Nc2ccccc2S(=O)(=O)O)c2oc(N3CCC(C)(C)CC3)cc(=O)c2c1` (centres unmarked) [Example 4, 2-[1-[2-(4,4-Dimethyl-1-piperidyl)-6-methyl-4-oxo-chromen-8-yl]ethylamino]benzenesulfonic acid], the IC50 in test [1] and in test [2] was 1000 to 5000 nM each time.

As for `Cc1cc(C(C)Nc2cccc3c2C(=O)NC3)c2oc(N3CCC(C)(C)CC3)cc(=O)c2c1` (centres unmarked) [Example 29, 7-[1-[2-(4,4-Dimethyl-1-piperidyl)-6-methyl-4-oxo-chromen-8-yl]ethylamino]isoindolin-1-one], the IC50 in test [1] and in test [2] was 1000 to 5000 nM in each case.

Take `Cc1cc(C(C)Nc2ccccc2S(=O)(=O)C(F)F)c2oc(N3CCC(C)(C)CC3)cc(=O)c2c1` (centres unmarked) [Example 38, 8-[1-[2-(Difluoromethylsulfonyl)anilino]ethyl]-2-(4,4-dimethyl-1-piperidyl)-6-methyl-chromen-4-one]: the IC50 in test [1] and in test [2] was 500 to 1000 nM each time.

In the case of `Cc1cc(C(C)Nc2ccccc2-c2noc(=O)[nH]2)c2oc(N3CCC(C)(C)CC3)cc(=O)c2c1` (centres unmarked) [Example 45, 3-[2-[1-[2-(4,4-Dimethyl-1-piperidyl)-6-methyl-4-oxo-chromen-8-yl]ethylamino]phenyl]-4H-1,2,4-oxadiazol-5-one], the IC50 in test [1] was in the range of 500 to 1000 nM; in test [2], 1000 to 5000 nM.

Turning to `Cc1cc(C(C)Nc2cccc3cc(C(=O)O)sc23)c2oc(N3CCC(C)(C)CC3)cc(=O)c2c1` (centres unmarked) [Example 46, 7-[1-[2-(4,4-Dimethyl-1-piperidyl)-6-methyl-4-oxo-chromen-8-yl]ethylamino]benzothiophene-2-carboxylic acid], the figures for the IC50 in test [1] and in test [2] were 500 to 1000 nM and 1000 to 5000 nM, respectively.

In the case of `Cc1cc(C(C)Nc2ccc(C3CC3)nc2C(=O)O)c2oc(N3CCC(C)(C)CC3)cc(=O)c2c1` (centres unmarked) [Example 50, 6-Cyclopropyl-3-[1-[2-(4,4-dimethyl-1-piperidyl)-6-methyl-4-oxo-chromen-8-yl]ethylamino]pyridine-2-carboxylic acid], the IC50 in test [1] lay in the range of 500 to 1000 nM; in test [2] it was 1000 to 5000 nM.

In the case of `CC(Nc1ccccc1C(=O)O)c1cc(C(F)(F)F)cc2c(=O)cc(N3CCC(C)(C)CC3)oc12` (centres unmarked) [Example 57, 2-[1-[2-(4,4-dimethyl-1-piperidyl)-4-oxo-6-(trifluoromethyl)chromen-8-yl]ethylamino]benzoic acid], the results for the IC50 in test [1] and in test [2] were 500 to 1000 nM and 1000 to 5000 nM, respectively.

In the case of `Cc1cc(C(C)Nc2ccccc2C(=O)O)c2oc(N3CCC(C(F)(F)F)CC3)cc(=O)c2c1` (centres unmarked) [Example 74, 2-[1-[6-Methyl-4-oxo-2-[4-(trifluoromethyl)-1-piperidyl]chromen-8-yl]ethylamino]benzoic acid], the figures for the IC50 in test [1] and in test [2] were 500 to 1000 nM and 5000 to 10000 nM, respectively.

`Cc1cc(C(C)Nc2ccccc2C(=O)O)c2oc(N3CCCC4(CCOCC4)C3)cc(=O)c2c1` (centres unmarked) [Example 76, 2-[1-[6-Methyl-2-(9-oxa-2-azaspiro[5.5]undecan-2-yl)-4-oxo-chromen-8-yl]ethylamino]benzoic acid]: the IC50 fell in the range of 500 to 1000 nM in test [1] and 5000 to 10000 nM in test [2].

As to `Cc1cc(C(C)Nc2ccccc2C(=O)O)c2oc(N3CCOC(c4ccc(S(C)(=O)=O)cc4)C3)cc(=O)c2c1` (centres unmarked) [Example 85, 2-[1-[6-Methyl-2-[2-(4-methylsulfonylphenyl)morpholin-4-yl]-4-oxo-chromen-8-yl]ethylamino]benzoic acid], the IC50 in test [1] and in test [2] was 1000 to 5000 nM each time.

Take `Cc1cc(C(C)Nc2ccccc2C(=O)O)c2oc(N3CCC4(CC3)Cn3nc(C(=O)N(C)C)cc3CO4)cc(=O)c2c1` (centres unmarked) [Example 107, 2-[1-[2-[2-(Dimethylcarbamoyl)spiro[4,7-dihydropyrazolo[5,1-c][1,4]oxazine-6,4′-piperidine]-1′-yl]-6-methyl-4-oxo-chromen-8-yl]ethylamino]benzoic acid]: the figures for the IC50 in test [1] and in test [2] were 1000 to 5000 nM and 5000 to 10000 nM, respectively.

As for `Cc1cc(C(C)Nc2ccccc2C(=O)O)c2oc(N3CCCOCC3)cc(=O)c2c1` (centres unmarked) [Example 151, 2-[1-[6-Methyl-2-(1,4-oxazepan-4-yl)-4-oxo-chromen-8-yl]ethylamino]benzoic acid], the IC50 was 500 to 1000 nM in test [1] and 1000 to 5000 nM in test [2].

As for `Cc1cc([C@@H](C)Nc2ccnnc2C(=O)O)c2oc(N3CCC(C)(C)CC3)cc(=O)c2c1` [Example 251], the IC50 in test [1] and in test [2] was 1000 to 5000 nM each time.

With `Cc1cc(C(C)Nc2ccc(Cl)nc2C(=O)O)c2oc(N3Cc4ccccc4C3)cc(=O)c2c1` (centres unmarked) [Example 296, 6-Chloro-3-[1-(2-isoindolin-2-yl-6-methyl-4-oxo-chromen-8-yl)ethylamino]pyridine-2-carboxylic acid], the values for the IC50 in test [1] and in test [2] were 500 to 1000 nM and 1000 to 5000 nM, respectively.

For the compound `Cc1cc(C(C)Nc2ccccc2C(=O)O)c2oc(N3CCC(C)(C)CC3)c(C#N)c(=O)c2c1` (centres unmarked) [Example 392, 2-[1-[3-Cyano-2-(4,4-dimethyl-1-piperidyl)-6-methyl-4-oxo-chromen-8-yl]ethylamino]benzoic acid 2,2,2-trifluoroacetic acid], the IC50 in test [1] and in test [2] was 500 to 1000 nM throughout.

What is called IC50 is the point on the concentration scale where inhibition reaches its midpoint. High values mean lower potency, low ones higher potency. The EC50 is the concentration needed to bring the measured effect to its halfway point. The low end stands for greater potency, the high end for weaker potency.
